Here are results for 9 compounds from US20250074891A1 (Anaxis Pharma Pty Ltd., priority 2021, published 2025).

The target in one assay is MLKL (full length) (Homo sapiens (Human), UniProt Q8NB16). Kind of assay: KINOMEscan binding assay, MLKL (full length). The following applies: Table 36. The procedure:
Kinase assays. For most assays, kinase-tagged T7 phage strains were grown in parallel in 24-well blocks in an E. coli host derived from the BL21 strain. E. coli were grown to log-phase and infected with T7 phage from a frozen stock (multiplicity of infection=0.4) and incubated with shaking at 32° C. until lysis (90-150 minutes).
The Hill Slope was set to −1.

The subject of assay [1] is U937 human histiocytic leukemia cell line. Put plainly: Cellular assay: inhibition of TSQ induced necroptosis (CellTitre-Glo). To be noted: Homo sapiens, U-937; U937 cells, TSQ cocktail, 48 hours, Table 38; read-out: Inhibition of TSQ-induced necroptosis (IC50 cell-based assay). The procedure: […] ASSAY: Screening compounds for inhibition of TSQ induced necroptosis, 384 well plate format.
Cell Line ID: U937 human histiocytic leukemia cell line.
Cell Concentration (cells/well): Final cell density is 20,000 cells per well.
Cell growth medium: HT-RPMI medium+7.4% Fetal Bovine Serum (FBS). Cells are cultured in Corning 150 cm^z tissue culture flasks with vented caps at 37° C./5% CO2.
Incubation: Plates were incubated at 37° C./5% CO2 in a humidified incubator for 48 hours following addition of compounds and death stimuli (TSQ cocktail).
Compound concentration: 36 μM starting concentration, 1:3 dilution, 10 point
DMSO final concentration (% v/v): 0.3%.
Compounds in TSQ cocktail (T: TNF; S: Smac mimetic; Q: Q-VD-OPh) and their final concentrations: • hTNF-Fc (100 ng/ml)—produced by standard procedures as shown in Bossen et al., J Biol Chem, 2006, 281(20), 13964-13971. • Compound A (500 nM)—Smac mimetic, Tetralogic and SYNthesis med chem • Q-VD-OPh (10 μM)—MP Biomedicals
The cellular assay was carried out according to the following steps: • 1. Each well was prepared by sequential addition of: • a. DMSO (control; columns 1-2 and 23-24) or compound in DMSO—addition was performed using acoustic transfer of nl volumes of stock compound to give final test concentrations of 36, 12, 4, 1.3, 0.44, 0.148, 0.049, 0.016, 0.005 and 0.002 μM. All wells were backfilled with DMSO to a final total volume in the well of 100 nl. • b. Following compound/DMSO addition in step (a), 40 μL of cell suspension (5×10^5 cells/mL) was added to provide a final cell concentration of 20,000 cells per well, and • c. Following cell addition in step (b), 10 μL of 5×TSQ cocktail (except to positive controls; […]) was added to each well. • 2. After 48 hours, plate was removed from the 37° C. incubator and equilibrated to room temperature for 45 minutes. • 3. 15 μL of room temperature CellTitre-Glo2™ (Promega™) was added to each well. • 4. Shook plates for 2 minutes (˜600 rpm) and incubated at room temperature for 15 minutes to allow signal to stabilise. • 5. Read luminescence readout on a plate reader.
Percent viability was calculated for each compound according to equation (2):
[formula] • wherein • RawData is the readout of any cell containing a compound of the invention • TA is the total activity provided by the luminescence readout from DMSO only wells (columns 2 and 24)=100% viability • NSA is the non-specific activity provided by DMSO+TSQ wells (columns 1 and 23)=0% viability
Curve fitting: 10-point titration curves are fitted with the 4-parameter logistic nonlinear regression model and the IC50 reported is the inflection point of the curve.
Analysis: Data was loaded into Dotmatics™ and visualised using the Tibco® Spotfire™ software. 10 points titration curves were fitted with the 4-parameter logistic nonlinear regression model and the IC50 reported reflect the inflection point of the curve for curve fitting.
Assay involving the TSQ cocktail (T: TNF; S: Smac mimetic; Q: Q-VD-OPh): TSQ treatment ensures that cells specifically undergo necroptotic cell death. TNF activates the TNF receptor, Smac mimetic directs the signal away from proinflammatory signaling and toward the RIP1/RIP3-mediated cell death pathways, and Q-VD-OPh ensures that the apoptotic response is blocked leaving only the programmed necrosis response. The compounds' activity (solution in DMSO) tested in this TSQ-induced assay was evaluated by determining the number of viable cells in culture by measuring the amount of ATP present as measured by CelltiterGlo.

A further assay relates to U937 cells. Put plainly: Counter screen: cell viability without TSQ cocktail (off-target effect). Further details: species or system human. The following applies: Homo sapiens, U-937, Table 38, read-out: Off-target effect (IC50 cell-based assay). The procedure: Counter screen: In parallel, all compounds were tested for their ability to affect cell viability. The same U937 cells were treated with compound in DMSO without the TSQ cocktail. This counter screen enabled evaluation of off-target effects. In this case, cell viability was measured by CelltiterGlo.
(A counterscreen serves to expose hits that act by an unwanted route or on another target.)

MLKL (full length), sequence (Q8NB16 whole entry): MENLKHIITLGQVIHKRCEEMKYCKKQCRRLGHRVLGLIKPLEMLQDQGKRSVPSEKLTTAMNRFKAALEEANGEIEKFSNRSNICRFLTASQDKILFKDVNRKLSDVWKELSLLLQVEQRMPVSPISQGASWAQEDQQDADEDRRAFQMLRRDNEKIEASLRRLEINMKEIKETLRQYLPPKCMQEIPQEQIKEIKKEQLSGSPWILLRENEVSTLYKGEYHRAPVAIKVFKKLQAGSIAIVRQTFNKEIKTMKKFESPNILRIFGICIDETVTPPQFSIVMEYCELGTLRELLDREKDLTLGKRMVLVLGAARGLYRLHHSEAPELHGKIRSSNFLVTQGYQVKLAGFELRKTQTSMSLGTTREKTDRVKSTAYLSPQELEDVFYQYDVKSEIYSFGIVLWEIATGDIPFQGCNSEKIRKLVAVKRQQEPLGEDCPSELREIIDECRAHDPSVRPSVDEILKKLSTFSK

One may read the Kd as the equilibrium constant for the complex coming apart. Low values mean higher affinity, high ones lower affinity. By IC50 is commonly meant the concentration that inhibits the measured activity by half. For `Cc1ncsc1-c1ccc(CNC(=O)[C@@H]2C[C@@H](O)CN2C(=O)[C@@H](NC(=O)COCCOc2cc(Nc3[nH]nc(-c4ccc(NS(=O)(=O)CC(F)(F)F)cc4)c3C(N)=O)ccn2)C(C)(C)C)cc1` [Compound 1011, 5-({2-[2-({[(2S)-1-[(2S,4R)-4-hydroxy-2-({[4-(4-methyl-1,3-thiazol-5-yl)phenyl]methyl}carbamoyl)pyrrolidin-1-yl]-3,3-dimethyl-1-oxobutan-2-yl]carbamoyl}methoxy)ethoxy]pyridin-4-yl}amino)-3-[4-(2,2,2-trifluoroethanesulfonamido)phenyl]-1H-pyrazole-4-carboxamide], the Kd at MLKL (full length) is under 0.01 µM. Besides, the IC50 (in assay [1]; in the assay with U937 cells) was over 10 µM each time.
The compound `Cc1ncsc1-c1ccc(CNC(=O)[C@@H]2C[C@@H](O)CN2C(=O)[C@@H](NC(=O)COCCOc2cc(Nc3[nH]nc(-c4ccc(NS(=O)(=O)C(F)F)cc4)c3C(N)=O)ccn2)C(C)(C)C)cc1` [Compound 1012, 3-[4-(difluoromethanesulfonamido)phenyl]-5-({2-[2-({[(2S)-1-[(2S,4R)-4-hydroxy-2-({[4-(4-methyl-1,3-thiazol-5-yl)phenyl]methyl}carbamoyl)pyrrolidin-1-yl]-3,3-dimethyl-1-oxobutan-2-yl]carbamoyl}methoxy)ethoxy]pyridin-4-yl}amino)-1H-pyrazole-4-carboxamide] yielded a Kd at MLKL (full length) of under 0.01 µM. In addition, the IC50 (in assay [1]; in the assay on U937 cells) was over 10 µM each time.
With `CCS(=O)(=O)Nc1ccc(-c2n[nH]c(Nc3ccnc(OCCCCC(=O)N[C@H](C(=O)N4C[C@@H](O)C[C@H]4C(=O)NCc4ccc(-c5scnc5C)cc4)C(C)(C)C)c3)c2C(N)=O)cc1` [Compound 1014, 3-(4-ethanesulfonamidophenyl)-5-{[2-(4-{[(2S)-1-[(2S,4S)-4-hydroxy-2-({[4-(4-methyl-1,3-thiazol-5-yl)phenyl]methyl}carbamoyl)pyrrolidin-1-yl]-3,3-dimethyl-1-oxobutan-2-yl]carbamoyl}butoxy)pyridin-4-yl]amino}-1H-pyrazole-4-carboxamide], the Kd at MLKL (full length) is under 0.01 µM. Besides, the IC50 (in assay [1]; in the assay on U937 cells) was over 10 µM each time.
Compound `Cc1ncsc1-c1ccc(CNC(=O)[C@@H]2C[C@@H](O)CN2C(=O)[C@@H](NC(=O)CCCCOc2cc(Nc3[nH]nc(-c4ccc(NS(=O)(=O)C(F)F)cc4)c3C(N)=O)ccn2)C(C)(C)C)cc1` [Compound 1017, 3-[4-(difluoromethanesulfonamido)phenyl]-5-{[2-(4-{[(2S)-1-[(2S,4R)-4-hydroxy-2-({[4-(4-methyl-1,3-thiazol-5-yl)phenyl]methyl}carbamoyl)pyrrolidin-1-yl]-3,3-dimethyl-1-oxobutan-2-yl]carbamoyl}butoxy)pyridin-4-yl]amino}-1H-pyrazole-4-carboxamide] displayed a Kd at MLKL (full length) of under 0.01 µM. In addition, the figures for the IC50 (in assay [1]; in the assay on U937 cells) were 1 to 10 µM and over 10 µM, respectively.
For `CCS(=O)(=O)Nc1ccc(-c2n[nH]c(Nc3ccnc(OCCCCCCCCCCCCCC(=O)N[C@H](C(=O)N4C[C@H](O)C[C@H]4C(=O)NCc4ccc(-c5scnc5C)cc4)C(C)(C)C)c3)c2C(N)=O)cc1` [Compound 1018, 3-(4-ethanesulfonamidophenyl)-5-({2-[(13-{[(2S)-1-[(2S,4R)-4-hydroxy-2-({[4-(4-methyl-1,3-thiazol-5-yl)phenyl]methyl}carbamoyl)pyrrolidin-1-yl]-3,3-dimethyl-1-oxobutan-2-yl]carbamoyl}tridecyl)oxy]pyridin-4-yl}amino)-1H-pyrazole-4-carboxamide] the same measures were 0.01 to 1 µM, over 10 µM and over 10 µM.
For `CCS(=O)(=O)Nc1ccc(-c2n[nH]c(Nc3cnc(OCCCCC(=O)N[C@H](C(=O)N4C[C@H](O)C[C@H]4C(=O)NCc4ccc(-c5scnc5C)cc4)C(C)(C)C)cn3)c2C(N)=O)cc1` [Compound 1022, 3-(4-ethanesulfonamidophenyl)-5-{[5-(4-{[(2S)-1-[(2S,4R)-4-hydroxy-2-({[4-(4-methyl-1,3-thiazol-5-yl)phenyl]methyl}carbamoyl)pyrrolidin-1-yl]-3,3-dimethyl-1-oxobutan-2-yl]carbamoyl}butoxy)pyrazin-2-yl]amino}-1H-pyrazole-4-carboxamide] the same measures were under 0.01 µM, under 1 µM and over 10 µM.
As to `Cc1ncsc1-c1ccc(CNC(=O)[C@@H]2C[C@@H](O)CN2C(=O)[C@@H](NC(=O)CCn2ccc(Nc3[nH]nc(-c4ccc(NS(=O)(=O)C(F)F)c(O[C@@H](C)c5ccc(F)cc5)c4)c3C(N)=O)n2)C(C)(C)C)cc1` [Compound 1032, 3-[4-(difluoromethanesulfonamido)-3-[(1S)-1-(4-fluorophenyl)ethoxy]phenyl]-5-{[1-(2-{[(2S)-1-[(2S,4R)-4-hydroxy-2-({[4-(4-methyl-1,3-thiazol-5-yl)phenyl]methyl}carbamoyl)pyrrolidin-1-yl]-3,3-dimethyl-1-oxobutan-2-yl]carbamoyl}ethyl)-1H-pyrazol-3-yl]amino}-1H-pyrazole-4-carboxamide], the Kd at MLKL (full length) was under 0.01 µM. The IC50 (in assay [1]; in the assay on U937 cells) was over 10 µM each time.
As to `Cc1ncsc1-c1ccc(CNC(=O)[C@@H]2C[C@@H](O)CN2C(=O)[C@@H](NC(=O)CCCn2ccc(Nc3[nH]nc(-c4ccc(NS(=O)(=O)C(F)F)c(O[C@@H](C)c5ccc(F)cc5)c4)c3C(N)=O)n2)C(C)(C)C)cc1` [Compound 1033, 3-[4-(difluoromethanesulfonamido)-3-[(1S)-1-(4-fluorophenyl)ethoxy]phenyl]-5-{[1-(3-{[(2S)-1-[(2S,4R)-4-hydroxy-2-({[4-(4-methyl-1,3-thiazol-5-yl)phenyl]methyl}carbamoyl)pyrrolidin-1-yl]-3,3-dimethyl-1-oxobutan-2-yl]carbamoyl}propyl)-1H-pyrazol-3-yl]amino}-1H-pyrazole-4-carboxamide], the Kd on MLKL (full length) was under 0.01 µM. In addition, the values for the IC50 (in assay [1]; in the assay with U937 cells) were 1 to 10 µM and over 10 µM, respectively.
For `Cc1ncsc1-c1ccc(CNC(=O)[C@@H]2C[C@@H](O)CN2C(=O)[C@@H](NC(=O)COCCn2ccc(Nc3[nH]nc(-c4ccc(NS(=O)(=O)C(F)F)c(O[C@@H](C)c5ccc(F)cc5)c4)c3C(N)=O)n2)C(C)(C)C)cc1` [Compound 1036, 3-[4-(difluoromethanesulfonamido)-3-[(1S)-1-(4-fluorophenyl)ethoxy]phenyl]-5-({1-[2-({[(2S)-1-[(2S,4R)-4-hydroxy-2-({[4-(4-methyl-1,3-thiazol-5-yl)phenyl]methyl}carbamoyl)pyrrolidin-1-yl]-3,3-dimethyl-1-oxobutan-2-yl]carbamoyl}methoxy)ethyl]-1H-pyrazol-3-yl}amino)-1H-pyrazole-4-carboxamide] the same measures were under 0.01 µM, 1 to 10 µM and over 10 µM.
